Laboratory results: article PMC11359809, “Probing the molecular basis for signal transduction through the Zinc-Activated Channel (ZAC)” (Biochemical pharmacology, 2021)

Columns and labels:
WT m5-HT3AR = target: T1, WT m5-HT3AR (Mus musculus, UniProt P23979); assay: TEVC in Xenopus oocytes expressing WT m5-HT3AR; type: cell-based; conditions: 5-HT 30 μM
T1 construct: expressed in transfected cells; host or cells: Xenopus oocytes injected with cRNA (pUNIV vector)
T1 sequence (P23979 24-489): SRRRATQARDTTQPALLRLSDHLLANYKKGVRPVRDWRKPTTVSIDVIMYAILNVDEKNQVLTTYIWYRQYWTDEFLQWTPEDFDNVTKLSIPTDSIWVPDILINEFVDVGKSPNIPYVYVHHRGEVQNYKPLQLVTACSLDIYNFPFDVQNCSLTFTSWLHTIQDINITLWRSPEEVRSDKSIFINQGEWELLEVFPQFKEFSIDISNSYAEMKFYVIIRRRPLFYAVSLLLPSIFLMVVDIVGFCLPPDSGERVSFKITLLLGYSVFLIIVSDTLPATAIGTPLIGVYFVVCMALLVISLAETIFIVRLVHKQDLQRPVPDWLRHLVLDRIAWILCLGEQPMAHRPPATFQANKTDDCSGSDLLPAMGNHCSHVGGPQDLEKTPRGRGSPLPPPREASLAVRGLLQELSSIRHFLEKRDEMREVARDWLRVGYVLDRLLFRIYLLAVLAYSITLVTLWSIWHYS
Protocol: (§1) The recordings were performed at room temperature.
(§2) Analysis of the data from the TEVC recordings were performed using Clampfit software version 10.5 (Molecular Devices, Crawley, UK) and GraphPad Prism version 7.0c (GraphPad Software, La Jolla, CA). Unless otherwise stated, the inward currents induced by agonists in oocytes were normalized to the maximal response elicited by a specific agonist (agonist Imax) on each oocyte. Concentration-response and concentration-inhibition curves were fitted in GraphPad Prism by nonlinear regression using the equation for sigmoidal dose-response with variable slope. Each data point represents the mean ± S.E.M. value of recordings performed on at least five oocytes in total from at least two different batches. For the data where statistical analysis was performed, a one-way ANOVA was used. The null hypothesis was rejected at P < 0.05, and the differences between the means were analyzed by Tukey’s multiple comparisons test.

ZAC/m5-HT3A = assay: TEVC in oocytes expressing ZAC/m5-HT3A chimera; type: cell-based, mouse/human; conditions: 10 mM Zn^2+; n = 5
Protocol: as §1, §2
Initially, we constructed four chimeric subunits fusing the ZAC ECD or TMD-ICD with the complementary domains from either the m5-HT3A or the hα1 GlyR subunit: ZAC/m5-HT3A, m5-HT3A/ZAC, ZAC/hα1-Gly and hα1-Gly/ZAC (Fig. 1A). […] (Fig. 1A).

ZAC/m5-HT3A-II = assay: TEVC in oocytes expressing ZAC/m5-HT3A-II chimera; type: cell-based, mouse/human; conditions: Zn^2+ 10 mM; H^+ pH 4.0; data not shown
Protocol: as §1

ZAC^D116A/DH8A/H210A = target: T2, ZAC^D116A/DH8A/H210A (Homo sapiens, UniProt Q401N2, A152T/D140A/D142A/H144A); assay: TEVC in oocytes, Cluster 1 triple mutant; type: cell-based; conditions: 10 mM Zn^2+
T2 construct: expressed in transfected cells; host or cells: Xenopus oocytes injected with cRNA (pUNIV vector)
Protocol: as §1
as §2, with “For the data where statistical analysis was performed, a one-way ANOVA was used.” left out
(§3) The putative involvement of candidate residues in Clusters 1, 2, 3 and 4 in Zn^2+ binding to ZAC was investigated in by an elaborate alanine mutagenesis scanning. […] The determined IpH 4.0 value was used in part as a control and in part to enable the distinction of ZAC mutants non-responsive to Zn^2+ due to elimination of their ability to bind the metal ion from those where the mutation had eliminated cell surface expression and/or disrupted overall functionality of the receptor complex. […]

ZAC^H120F = assay: TEVC in oocytes, ZAC H120F mutant; type: cell-based, human; conditions: agonist
Protocol: as §1
as §2, with “For the data where statistical analysis was performed, a one-way ANOVA was used.” left out
as §3

ZAC^H79A = assay: TEVC in oocytes, ZAC H79A mutant; type: cell-based, human; conditions: agonist; parallel recordings
Protocol: as §1
as §2, with “For the data where statistical analysis was performed, a one-way ANOVA was used.” left out
as §3

ZAC^H82A = target: T3, ZAC^H82A (Homo sapiens, UniProt Q401N2, A152T/H106A); assay: TEVC in oocytes, ZAC H82A mutant; type: cell-based
T3 construct: expressed in transfected cells; host or cells: Xenopus oocytes injected with cRNA (pUNIV vector)
Protocol: as §1
as §2, with “For the data where statistical analysis was performed, a one-way ANOVA was used.” left out
as §3

[1] = target: T4, ZAC^E136A/H139A/D143A/H144A (Homo sapiens, UniProt Q401N2, A152T/D167A/E160A/H163A/H168A); assay: TEVC in oocytes, Cluster 2 quadruple mutant; type: cell-based; conditions: Zn^2+ 10 mM; H^+ pH 4.0; data not shown
T4 construct: expressed in transfected cells; host or cells: Xenopus oocytes injected with cRNA (pUNIV vector)
Protocol: as §1
as §2, with “For the data where statistical analysis was performed, a one-way ANOVA was used.” left out
as §3

[2] = target: T5, ZAC^E24A/E89A/D105A/D108A/E130A (Homo sapiens, UniProt Q401N2, A152T/D129A/D132A/E113A/E154A/E48A); assay: TEVC in oocytes, Cluster 3 quintuple mutant; type: cell-based; conditions: H^+ pH 4.0; Zn^2+ 10 mM; data not shown
T5 construct: expressed in transfected cells; host or cells: Xenopus oocytes injected with cRNA (pUNIV vector)
Protocol: as §1
as §2, with “For the data where statistical analysis was performed, a one-way ANOVA was used.” left out
as §3

ZAC^D105A/D108A = target: T6, ZAC^D105A/D108A (Homo sapiens, UniProt Q401N2, A152T/D129A/D132A); assay: TEVC in oocytes, ZAC D105A/D108A mutant; type: cell-based; conditions: 10 mM Zn^2+; data not shown
T6 construct: expressed in transfected cells; host or cells: Xenopus oocytes injected with cRNA (pUNIV vector)
Protocol: as §1
as §2, with “For the data where statistical analysis was performed, a one-way ANOVA was used.” left out
as §3

ZAC^D105A/E130A = target: T7, ZAC^D105A/E130A (Homo sapiens, UniProt Q401N2, A152T/D129A/E154A); assay: TEVC in oocytes, ZAC D105A/E130A mutant; type: cell-based; conditions: 10 mM Zn^2+; data not shown
T7 construct: expressed in transfected cells; host or cells: Xenopus oocytes injected with cRNA (pUNIV vector)
Protocol: as §1
as §2, with “For the data where statistical analysis was performed, a one-way ANOVA was used.” left out
as §3

ZAC^E89A/D105A = target: T8, ZAC^E89A/D105A (Homo sapiens, UniProt Q401N2, A152T/D129A/E113A); assay: TEVC in oocytes, ZAC E89A/D105A mutant; type: cell-based
T8 construct: expressed in transfected cells; host or cells: Xenopus oocytes injected with cRNA (pUNIV vector)
Protocol: as §1
as §2, with “For the data where statistical analysis was performed, a one-way ANOVA was used.” left out
as §3

[3] = tested on: ZAC^L9′V, ZAC^L9′I and ZAC^L9′T; assay: TEVC in oocytes, L9′V, L9′I and L9′T mutants (collective statement); type: cell-based, human; conditions: compared to WT ZAC; range over the three mutants
Protocol: as §1, §2

ZAC^H79A/H120F = target: T9, ZAC^H79A/H120F (Homo sapiens, UniProt Q401N2, A152T/H103A/H144F); assay: TEVC in oocytes, ZAC H79A/H120F mutant; type: cell-based; conditions: parallel recordings, same oocyte batches
T9 construct: expressed in transfected cells; host or cells: Xenopus oocytes (cRNA injection, pUNIV vector)
Protocol: as §1
as §2, with “For the data where statistical analysis was performed, a one-way ANOVA was used.” left out
as §3

ZAC^H82A/H120F = target: T10, ZAC^H82A/H120F (Homo sapiens, UniProt Q401N2, A152T/H106A/H144F); assay: TEVC in oocytes, ZAC H82A/H120F mutant; type: cell-based; conditions: parallel recordings, same oocyte batches
T10 construct: expressed in transfected cells; host or cells: Xenopus oocytes (cRNA injection, pUNIV vector)
Protocol: as §1
as §2, with “For the data where statistical analysis was performed, a one-way ANOVA was used.” left out
as §3

ZAC^H79A/H82A/H120F = target: T11, ZAC^H79A/H82A/H120F (Homo sapiens, UniProt Q401N2, A152T/H103A/H106A/H144F); assay: TEVC in oocytes, ZAC H79A/H82A/H120F mutant; type: cell-based; conditions: parallel recordings, same oocyte batches
T11 construct: expressed in transfected cells; host or cells: Xenopus oocytes (cRNA injection, pUNIV vector)
Protocol: as §1
as §2, with “For the data where statistical analysis was performed, a one-way ANOVA was used.” left out
as §3

ZAC^E130A = target: T12, ZAC^E130A (Homo sapiens, UniProt Q401N2, A152T/E154A); assay: TEVC in oocytes, ZAC E130A mutant; type: cell-based
T12 construct: expressed in transfected cells; host or cells: Xenopus oocytes (cRNA injection, pUNIV vector)
Protocol: as §1
as §2, with “For the data where statistical analysis was performed, a one-way ANOVA was used.” left out
as §3

T12 sequence (Q401N2 26-412 A152T/E154A): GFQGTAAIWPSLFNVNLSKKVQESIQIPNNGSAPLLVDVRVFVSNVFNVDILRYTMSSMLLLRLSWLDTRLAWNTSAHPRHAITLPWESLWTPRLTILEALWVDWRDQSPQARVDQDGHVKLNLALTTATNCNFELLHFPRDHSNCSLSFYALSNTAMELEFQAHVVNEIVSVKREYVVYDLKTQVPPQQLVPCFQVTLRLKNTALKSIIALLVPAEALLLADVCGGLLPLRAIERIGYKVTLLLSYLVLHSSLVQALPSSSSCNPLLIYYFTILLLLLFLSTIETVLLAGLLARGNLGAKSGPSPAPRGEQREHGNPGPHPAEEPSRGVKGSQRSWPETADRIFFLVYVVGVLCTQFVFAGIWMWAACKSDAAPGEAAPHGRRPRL
T6 sequence (Q401N2 26-412 D129A/D132A/A152T): as the sequence (Q401N2 26-412 A152T/E154A) above, with D104A, D107A, A129E counted along it
T11 sequence (Q401N2 26-412 H103A/H106A/H144F/A152T): as the sequence (Q401N2 26-412 A152T/E154A) above, with H78A, H81A, H119F, A129E counted along it
T8 sequence (Q401N2 26-412 E113A/D129A/A152T): as the sequence (Q401N2 26-412 A152T/E154A) above, with E88A, D104A, A129E counted along it
T9 sequence (Q401N2 26-412 H103A/H144F/A152T): as the sequence (Q401N2 26-412 A152T/E154A) above, with H78A, H119F, A129E counted along it
T3 sequence (Q401N2 26-412 H106A/A152T): as the sequence (Q401N2 26-412 A152T/E154A) above, with H81A, A129E counted along it
T7 sequence (Q401N2 26-412 D129A/A152T/E154A): as the sequence (Q401N2 26-412 A152T/E154A) above, with D104A counted along it
T10 sequence (Q401N2 26-412 H106A/H144F/A152T): as the sequence (Q401N2 26-412 A152T/E154A) above, with H81A, H119F, A129E counted along it
T4 sequence (Q401N2 26-412 A152T/E160A/H163A/D167A/H168A): as the sequence (Q401N2 26-412 A152T/E154A) above, with A129E, E135A, H138A, D142A, H143A counted along it
T5 sequence (Q401N2 26-412 E48A/E113A/D129A/D132A/A152T/E154A): as the sequence (Q401N2 26-412 A152T/E154A) above, with E23A, E88A, D104A, D107A counted along it
T2 sequence (Q401N2 26-412 D140A/D142A/H144A/A152T): as the sequence (Q401N2 26-412 A152T/E154A) above, with D115A, D117A, H119A, A129E counted along it

Structure (SMILES): [Cl-].[Cl-].[Zn+2] [Zn^2+, ZnCl2]
- modulation of 5-HT (EC80)-evoked currents (WT m5-HT3AR): potentiated the 5-HT-induced response through WT m5-HT3AR at low-micromolar concentrations and inhibited it at higher concentrations
- I10 mM Zn2+ ± S.E.M. (ZAC/m5-HT3A): −0.0038 ± 0.0009 μA
- agonist-evoked current (ZAC/m5-HT3A-II): did not evoke significant currents
- I10 mM Zn2+ range (ZAC^D116A/DH8A/H210A): 10–30 nA
- fitted EC50 relative to WT ZAC (higher) (ZAC^H120F): ~ 3 fold
- fitted EC50 relative to WT ZAC (higher) (ZAC^H79A): 2.4 fold
- agonist properties compared to WT ZAC (ZAC^H82A): WT-like agonist properties
- agonist responsiveness [1]: non-responsive
- agonist responsiveness [2]: non-responsive
- agonist responsiveness (ZAC^D105A/D108A): non-responsive
- agonist responsiveness (ZAC^D105A/E130A): non-responsive
- concentration-response relationship compared to WT ZAC (ZAC^E89A/D105A): very similar to that at WT ZAC
- left-shift of Zn^2+ concentration-response relationship [3]: 8–30 fold
- ability to elicit ZAC signalling compared to WT ZAC (ZAC^H79A/H120F): did not appear to impair
- ability to elicit ZAC signalling compared to WT ZAC (ZAC^H82A/H120F): did not appear to impair
- ability to elicit ZAC signalling compared to WT ZAC (ZAC^H79A/H82A/H120F): did not appear to impair
- concentration-response relationship compared to WT ZAC (ZAC^E130A): did not differ significantly
